# Patent US20080132458A1, “Hypoxia-Activated Anti-Cancer Agents” (Threshold Pharmaceuticals, Inc., priority 2004, published 2008)
# System: CD1 Mice
# Assay: toxicity in healthy mice: weight loss after a single intravenous dose, observed for seven days
# Type: in vivo, mouse
# Conditions: single 20 mg/kg dose intravenously
# Procedure: CD1 Mice were injected intravenously with a single 20 mg/kg dose each of compounds 2a, 2b, daunorubicin, and vehicle and observed for seven days, before euthanization. […] Thus, compounds of the invention appear to be less toxic than Daunorubicin when administered to healthy mice.
row,SMILES,weight loss as compared with the control group
1,COc1cccc2c1C(=O)c1c(O)c3c(c(O)c1C2=O)C[C@@](O)(C(C)=O)C[C@@H]3O[C@H]1CC2[C@H](OCOCN2C(=O)OCc2ncc([N+](=O)[O-])n2C)[C@H](C)O1 (stereo partly drawn) [Compound 2b],did not undergo significant weight loss
2,COc1cccc2c1C(=O)c1c(O)c3c(c(O)c1C2=O)C[C@@](O)(C(C)=O)C[C@@H]3O[C@H]1CC2[C@H](OCOCN2C(=O)OCc2cnc([N+](=O)[O-])n2C)[C@H](C)O1 (stereo partly drawn) [Compound 2a],did not undergo significant weight loss
3,"COc1cccc2c1C(=O)c1c(O)c3c(c(O)c1C2=O)C[C@@](O)(C(C)=O)C[C@@H]3O[C@H]1C[C@H](N)[C@H](O)[C@H](C)O1 [Daunorubicin, reference compound]",Significant weight loss
